Test results published in publication PMC7829762, “Characterization of a Novel Laccase LAC-Yang1 from White-Rot Fungus Pleurotus ostreatus Strain Yang1 with a Strong Ability to Degrade and Detoxify Chlorophenols” (Molecules, 2021).

System: T1, LAC-Yang1
T1 construct: native enzyme purified from culture supernatant (Cu2+ and syringic acid induced; ammonium sulfate, DEAE, Phenyl-6FF); only laccase band secreted by this strain
Assay: absorbance assay, Michaelis-Menten non-linear regression
Assay type: biochemical, Pleurotus ostreatus
Conditions: 50 mM acetate buffer pH 5.0, 30 °C, free enzyme
Description: absorbance assay, Michaelis-Menten non-linear regression on LAC-Yang1

With `COc1ccccc1O` [guaiacol] as the compound, how does the Km (465 nm) read?
Its Km is 810 ± 150 µM.

With `CCn1c(=NN=c2sc3cc(S(=O)(=O)O)ccc3n2CC)sc2cc(S(=O)(=O)O)ccc21` [ABTS, 2,2′-azino-bis-(3-ethylbenzothiazoline-6-sulfonic acid)] as the compound, how does the Km (420 nm) read?
Its Km is 150 ± 50 µM.

How did the Km (470 nm, compound identity doubtful: paper spells 2,6-DMP as 2,6-Dimethylphenol, but 470 nm read-out is usual for 2,6-dimethoxyphenol) turn out when 2,6-Dimethylphenol [2,6-DMP] was run?
The Km was 120 ± 30 µM.
